Source: publication PMC8429421, “Structural basis for the tryptophan sensitivity of TnaC-mediated ribosome stalling” (Nature Communications, 2021)

Molecular target: T1, TnaC–ribosome complex (TnaC–70S) (Escherichia coli, UniProt P0AD89+P61175)
T1 construct: nascent 24-residue TnaC as peptidyl-tRNA(Pro) in E. coli 70S ribosome; L-Trp site formed by TnaC, uL22 Lys90 and 23S rRNA (Psi746, G748, A752, U2609); cell-free translation (PURExpress; RTS100 HY for cryo-EM)
Experiment: toeprinting of stalled ribosomes in reconstituted cell-free translation, hyperbolic fit; cryo-EM structure […] Å
Format: biochemical
Conditions: PURExpress lacking amino acids, other 19 amino acids 0.3 mM each, 37 °C, 30 min; arrest at codon 24; apparent functional value, not an equilibrium constant; read-out: [L-Trp]0.5

T1 sequence (P0AD89 whole entry, one chain of several): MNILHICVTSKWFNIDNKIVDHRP

EC50: 320 µM
SMILES: N[C@@H](Cc1c[nH]c2ccccc12)C(=O)O [L-Trp]
